From ChEMBL document CHEMBL1201862, “PubChem BioAssay data set” (2004)
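These data come from cells grown in 96-well plates and exposed to compound for 48 hours at five concentrations. At the GI50, growth is halved.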 Calls of active or inactive are those of the source. No stated cut-off is given here; in the data, active = GI50 up to about 1.1 µM and inactive = higher. Non-standard residues stand in square brackets, D forms with d. Residues, ends and D or L forms follow the SMILES beside them. β3hI = CC[CH](C)[CH](N)CC(=O)O

Key:
Assay in all cases: growth of human tumour cells (NCI), 48 h
EKVX = test system: EKVX
NCI-H226 = test system: NCI-H226
MOLT-4 = test system: MOLT-4
SK-OV-3 = test system: SK-OV-3
SK-MEL-2 = test system: SK-MEL-2
SK-MEL-28 = test system: SK-MEL-28
SK-MEL-5 = test system: SK-MEL-5
COLO 205 = test system: COLO 205
786-0 = test system: 786-0
HCT-116 = test system: HCT-116
A549 = test system: A549
U-251 = test system: U-251
SN12C = test system: SN12C
M14 = test system: M14
BT-549 = test system: BT-549
OVCAR-3 = test system: OVCAR-3
SF-295 = test system: SF-295
HOP-62 = test system: HOP-62
SW-620 = test system: SW-620
HOP-92 = test system: HOP-92
NCI-H522 = test system: NCI-H522
T47D = test system: T47D
UACC-257 = test system: UACC-257
NCI-H23 = test system: NCI-H23
Hs-578T = test system: Hs-578T
HCT-15 = test system: HCT-15
IGROV-1 = test system: IGROV-1
A498 = test system: A498
TK-10 = test system: TK-10
SNB-19 = test system: SNB-19
HT-29 = test system: HT-29
MDA-MB-435 = test system: MDA-MB-435
CAKI-1 = test system: CAKI-1
SF-268 = test system: SF-268
MDA-MB-231 = test system: MDA-MB-231
SR = test system: SR
ACHN = test system: ACHN
KM12 = test system: KM12
PC-3 = test system: PC-3
OVCAR-4 = test system: OVCAR-4
NCI/ADR-RES = test system: NCI/ADR-RES
UACC-62 = test system: UACC-62
SF-539 = test system: SF-539
OVCAR-8 = test system: OVCAR-8
RPMI-8226 = test system: RPMI-8226
LOX IMVI = test system: LOX IMVI
UO-31 = test system: UO-31
MDA-N = test system: MDA-N
HL-60 = test system: HL-60
OVCAR-5 = test system: OVCAR-5
CCRF-CEM = test system: CCRF-CEM
MCF7 = test system: MCF7
Malme-3M = test system: Malme-3M
DU-145 = test system: DU-145

SMILES: CCC(C)C(CC(=O)N1CCCC1C(=O)NC(C(=O)NC(C(=O)NCC(=O)NC(CC(N)=O)C(=O)NC(C(=O)NC(C(=O)NC(CCCCN)C(N)=O)C(C)CC)C(C)CC)C(C)C)C(C)CC)NC(=O)C(N)C(C)CC (stereo not drawn) (H-I[β3hI]PIVGNIIK-NH2; configuration not given here)
- GI50 (EKVX): > 50 µM (inactive)
- GI50 (NCI-H226): > 50 µM (inactive)
- GI50 (MOLT-4): > 50 µM (inactive)
- GI50 (SK-OV-3): > 50 µM (inactive)
- GI50 (SK-MEL-2): > 50 µM (inactive)
- GI50 (SK-MEL-28): > 50 µM (inactive)
- GI50 (SK-MEL-5): > 50 µM (inactive)
- GI50 (COLO 205): > 50 µM (inactive)
- GI50 (786-0): > 50 µM (inactive)
- GI50 (HCT-116): > 50 µM (inactive)
- GI50 (A549): > 50 µM (inactive)
- GI50 (U-251): > 50 µM (inactive)
- GI50 (SN12C): > 50 µM (inactive)
- GI50 (M14): > 50 µM (inactive)
- GI50 (BT-549): > 50 µM (inactive)
- GI50 (OVCAR-3): > 50 µM (inactive)
- GI50 (SF-295): > 50 µM (inactive)
- GI50 (HOP-62): > 50 µM (inactive)
- GI50 (SW-620): > 50 µM (inactive)
- GI50 (HOP-92): > 50 µM (inactive)
- GI50 (NCI-H522): > 50 µM (inactive)
- GI50 (T47D): > 50 µM (inactive)
- GI50 (UACC-257): > 50 µM (inactive)
- GI50 (NCI-H23): > 50 µM (inactive)
- GI50 (Hs-578T): > 50 µM (inactive)
- GI50 (HCT-15): > 50 µM
- GI50 (IGROV-1): > 50 µM (inactive)
- GI50 (A498): > 50 µM (inactive)
- GI50 (TK-10): > 50 µM (inactive)
- GI50 (SNB-19): > 50 µM (inactive)
- GI50 (HT-29): > 50 µM (inactive)
- GI50 (MDA-MB-435): > 50 µM (inactive)
- GI50 (CAKI-1): > 50 µM (inactive)
- GI50 (SF-268): > 50 µM (inactive)
- GI50 (MDA-MB-231): > 50 µM (inactive)
- GI50 (SR): > 50 µM (inactive)
- GI50 (ACHN): > 50 µM (inactive)
- GI50 (KM12): > 50 µM (inactive)
- GI50 (PC-3): > 50 µM (inactive)
- GI50 (OVCAR-4): > 50 µM (inactive)
- GI50 (NCI/ADR-RES): > 50 µM (inactive)
- GI50 (UACC-62): > 50 µM (inactive)
- GI50 (SF-539): > 50 µM (inactive)
- GI50 (OVCAR-8): > 50 µM (inactive)
- GI50 (RPMI-8226): > 50 µM (inactive)
- GI50 (LOX IMVI): > 50 µM (inactive)
- GI50 (UO-31): > 50 µM (inactive)
- GI50 (MDA-N): > 50 µM (inactive)
- GI50 (HL-60): > 50 µM (inactive)
- GI50 (OVCAR-5): > 50 µM (inactive)
- GI50 (CCRF-CEM): 10.5 µM (inactive)
- GI50 (MCF7): > 50 µM (inactive)
- GI50 (Malme-3M): > 50 µM (inactive)
- GI50 (DU-145): > 50 µM (inactive)
